The text below walks through data of US10004701B2, “Methods and compositions for treating infection” (UNIVERSITY OF ROCHESTER, priority 2012, dated 2018).

Structures can show the parent of a compound that is named as a salt. Where two headings read alike, the source gives them in different places.

Common to all, as to experiment: AK assay 384-well format, Prestwick library screening
The subject of test [1] is E. coli. The format is cell-based, Escherichia coli. To be noted: Escherichia coli, 3 h, 50 μM final drug concentration.
Test [2] deals with E. cloacae. Format: cell-based, Enterobacter cloacae. To be noted: Enterobacter cloacae, 3 h, 50 μM final drug concentration.
The test system of test [3] is A. baumannii strain 98-37-09. Format: cell-based, Acinetobacter baumannii. To be noted: Acinetobacter baumannii, 983709, 3 h, 50 μM final drug concentration.
The subject of test [4] is S. aureus strain USA300-0114. Format: cell-based, Staphylococcus aureus. To be noted: Staphylococcus aureus, USA300, 3 h, 50 μM final drug concentration.
The subject of test [5] is E. faecium. The format is cell-based, Enterococcus faecium. The following applies: Enterococcus faecium, 3 h, 50 μM final drug concentration.
The subject of test [6] is P. aeruginosa. The format is cell-based, Pseudomonas aeruginosa. To be noted: Pseudomonas aeruginosa, 3 h, 50 μM final drug concentration.
The subject of test [7] is K. pneumoniae. Format: cell-based, Klebsiella pneumoniae. The following applies: Klebsiella pneumoniae, 3 h, 50 μM final drug concentration.
[8] abbreviates: planktonic, cutoff for positive 3-fold increase, read-out: AK-based Prestwick Library Screening Results, E. coli (fold increase in extracellular AK activity).
The mark [9] stands for this setting: planktonic, cutoff for positive 3-fold increase, read-out: AK-based Prestwick Library Screening Results, E. cloacae (fold increase in extracellular AK activity).
The mark [10] stands for this setting: planktonic, cutoff for positive 3-fold increase, read-out: AK-based Prestwick Library Screening Results, A. baumannii (fold increase in extracellular AK activity).
Setting [11] is: planktonic, cutoff for positive 3-fold increase, read-out: AK-based Prestwick Library Screening Results, S. aureus (fold increase in extracellular AK activity).
Where [12] appears, read: planktonic, cutoff for positive 3-fold increase, read-out: AK-based Prestwick Library Screening Results, E. faecium (fold increase in extracellular AK activity).
[13] abbreviates: planktonic, cutoff for positive 3-fold increase, read-out: AK-based Prestwick Library Screening Results, P. aeruginosa (fold increase in extracellular AK activity).
Setting [14] is: planktonic, cutoff for positive 3-fold increase, read-out: AK-based Prestwick Library Screening Results, K. pneumoniae (fold increase in extracellular AK activity).
Setting [15] is: planktonic E. coli, 384-well, cutoff for positive-scoring molecules 3-fold increase, read-out: AK-based Prestwick Library Screening Results: E. coli (increase in extracellular AK activity).
[16] abbreviates: planktonic E. cloacae, 384-well, cutoff for positive-scoring molecules 3-fold increase, read-out: AK-based Prestwick Library Screening Results: E. cloacae (increase in extracellular AK activity).
The mark [17] stands for this setting: planktonic A. baumannii, 384-well, cutoff for positive-scoring molecules 3-fold increase, read-out: AK-based Prestwick Library Screening Results: A. baumannii (increase in extracellular AK activity).
[18] abbreviates: planktonic S. aureus, 384-well, cutoff for positive-scoring molecules 3-fold increase, read-out: AK-based Prestwick Library Screening Results: S. aureus (increase in extracellular AK activity).
[19] abbreviates: planktonic E. faecium, 384-well, cutoff for positive-scoring molecules 3-fold increase, read-out: AK-based Prestwick Library Screening Results: E. faecium (increase in extracellular AK activity).
The mark [20] stands for this setting: planktonic P. aeruginosa, 384-well, cutoff for positive-scoring molecules 3-fold increase, read-out: AK-based Prestwick Library Screening Results: P. aeruginosa (increase in extracellular AK activity).
[21] abbreviates: planktonic K. pneumoniae, 384-well, cutoff for positive-scoring molecules 3-fold increase, read-out: AK-based Prestwick Library Screening Results: K. pneumoniae (increase in extracellular AK activity).
The mark [22] stands for this setting: 384-well format, cutoff for positive-scoring molecules 3-fold increase, read-out: AK-based Prestwick Library Screening Results, E. coli (increase in extracellular AK activity).
The mark [23] stands for this setting: 384-well format, cutoff for positive-scoring molecules 3-fold increase, read-out: AK-based Prestwick Library Screening Results, E. cloacae (increase in extracellular AK activity).
The mark [24] stands for this setting: 384-well format, cutoff for positive-scoring molecules 3-fold increase, read-out: AK-based Prestwick Library Screening Results, A. baumannii (increase in extracellular AK activity).
[25] abbreviates: 384-well format, cutoff for positive-scoring molecules 3-fold increase, read-out: AK-based Prestwick Library Screening Results, S. aureus (increase in extracellular AK activity).
[26] abbreviates: 384-well format, cutoff for positive-scoring molecules 3-fold increase, read-out: AK-based Prestwick Library Screening Results, E. faecium (increase in extracellular AK activity).
Setting [27] is: 384-well format, cutoff for positive-scoring molecules 3-fold increase, read-out: AK-based Prestwick Library Screening Results, P. aeruginosa (increase in extracellular AK activity).
Where [28] appears, read: 384-well format, cutoff for positive-scoring molecules 3-fold increase, read-out: AK-based Prestwick Library Screening Results, K. pneumoniae (increase in extracellular AK activity).

As for `COc1ccc(CN2CCNCC2)c(OC)c1OC` [Trimetazidine dihydrochloride], the fold induction at 50 µM is 1.4 in test [1] (setting [8]); 1.7 in test [2] (setting [9]); 1.2 in test [3] (setting [10]); 1.2 in test [4] (setting [11]); 1 in test [5] (setting [12]); 1.1 in test [6] (setting [13]). Also, the fold induction at 50 µM in test [7] (setting [14]) was 1.1.
Take `CN1C(=O)OC(C)(C)C1=O` [Trimethadione]: the fold induction at 50 µM in test [1] (planktonic E. coli, cutoff for positive-scoring molecules 3-fold increase, read-out: AK-based Prestwick Library Screening Results, E. coli (increase in extracellular AK activity)) came to 1; in test [2] (planktonic E. cloacae, cutoff for positive-scoring molecules 3-fold increase, read-out: AK-based Prestwick Library Screening Results, E. cloacae (increase in extracellular AK activity)), 1.4; in test [3] (planktonic A. baumannii, cutoff for positive-scoring molecules 3-fold increase, read-out: AK-based Prestwick Library Screening Results, A. baumannii (increase in extracellular AK activity)) it was 0.9; in test [4] (planktonic S. aureus, cutoff for positive-scoring molecules 3-fold increase, read-out: AK-based Prestwick Library Screening Results, S. aureus (increase in extracellular AK activity)), 0.7; in test [5] (planktonic E. faecium, cutoff for positive-scoring molecules 3-fold increase, read-out: AK-based Prestwick Library Screening Results, E. faecium (increase in extracellular AK activity)) it was 0.9; in test [6] (planktonic P. aeruginosa, cutoff for positive-scoring molecules 3-fold increase, read-out: AK-based Prestwick Library Screening Results, P. aeruginosa (increase in extracellular AK activity)), 0.8. In addition, the fold induction at 50 µM in test [7] (planktonic K. pneumoniae, cutoff for positive-scoring molecules 3-fold increase, read-out: AK-based Prestwick Library Screening Results, K. pneumoniae (increase in extracellular AK activity)) turned out to be 0.7.
Take `COc1cc(C(=O)NCc2ccc(OCCN(C)C)cc2)cc(OC)c1OC` [Trimethobenzamide hydrochloride]: the fold induction at 50 µM in test [1] (setting [15]) is 1.2; in test [2] (setting [16]) it was 1.3; in test [3] (setting [17]) it was 1.2; in test [4] (setting [18]) it was 1.2; in test [5] (setting [19]), 1.1; in test [6] (setting [20]), 1. The fold induction at 50 µM in test [7] (setting [21]) amounted to 1.1.
As to `COc1cc(Cc2cnc(N)nc2N)cc(OC)c1OC` [Trimethoprim], the fold induction at 50 µM in test [1] (setting [15]) worked out at 1.2; in test [2] (setting [16]), 7.2; in test [3] (setting [17]), 3.1; in test [4] (setting [18]), 1; in test [5] (setting [19]) it was 1.1; in test [6] (setting [20]) it was 1.1. In addition, the fold induction at 50 µM in test [7] (setting [21]) amounted to 0.8.
`COc1cc2c(c(OC)c1OC)-c1ccc(O)c(=O)cc1C(N)CC2` (stereo not drawn) [Trimethylcolchicinic acid]: the fold induction at 50 µM in test [1] (planktonic E. coli, […], read-out: AK-based Prestwick Library Screening Results, E. coli (increase in extracellular AK activity)) is 0.8; in test [2] (planktonic E. cloacae, […], read-out: AK-based Prestwick Library Screening Results, E. cloacae (increase in extracellular AK activity)), 0.8; in test [3] (planktonic A. baumannii, […], read-out: AK-based Prestwick Library Screening Results, A. baumannii (increase in extracellular AK activity)), 1; in test [4] (planktonic S. aureus, […], read-out: AK-based Prestwick Library Screening Results, S. aureus (increase in extracellular AK activity)) it was 0.6; in test [5] (planktonic E. faecium, […], read-out: AK-based Prestwick Library Screening Results, E. faecium (increase in extracellular AK activity)) it was 1.2; in test [6] (planktonic P. aeruginosa, […], read-out: AK-based Prestwick Library Screening Results, P. aeruginosa (increase in extracellular AK activity)) it was 0.7. The fold induction at 50 µM in test [7] (planktonic K. pneumoniae, […], read-out: AK-based Prestwick Library Screening Results, K. pneumoniae (increase in extracellular AK activity)) is 0.7.
On to `Cc1cc2cc3c(C)cc(=O)oc3c(C)c2o1` [Trioxsalen], for which the fold induction at 50 µM stood at 1.2 in test [1] (cutoff for positive-scoring molecules 3-fold increase, read-out: AK-based Prestwick Library Screening Results, E. coli (fold increase in extracellular AK activity)); 1.3 in test [2] (cutoff for positive-scoring molecules 3-fold increase, read-out: AK-based Prestwick Library Screening Results, E. cloacae (fold increase in extracellular AK activity)); 1.2 in test [3] (cutoff for positive-scoring molecules 3-fold increase, read-out: AK-based Prestwick Library Screening Results, A. baumannii (fold increase in extracellular AK activity)); 0.9 in test [4] (cutoff for positive-scoring molecules 3-fold increase, read-out: AK-based Prestwick Library Screening Results, S. aureus (fold increase in extracellular AK activity)); 0.9 in test [5] (cutoff for positive-scoring molecules 3-fold increase, read-out: AK-based Prestwick Library Screening Results, E. faecium (fold increase in extracellular AK activity)); 1 in test [6] (cutoff for positive-scoring molecules 3-fold increase, read-out: AK-based Prestwick Library Screening Results, P. aeruginosa (fold increase in extracellular AK activity)). For the same molecule, the fold induction at 50 µM in test [7] (cutoff for positive-scoring molecules 3-fold increase, read-out: AK-based Prestwick Library Screening Results, K. pneumoniae (fold increase in extracellular AK activity)) stood at 1.
In the case of `Cc1ccc(/C(=C\CN2CCCC2)c2ccccn2)cc1` [Triprolidine hydrochloride], the fold induction at 50 µM in test [1] (setting [22]) turned out to be 1; in test [2] (setting [23]), 1; in test [3] (setting [24]), 0.9; in test [4] (setting [25]) it was 0.6; in test [5] (setting [26]), 1; in test [6] (setting [27]), 1. Moreover, the fold induction at 50 µM in test [7] (setting [28]) was 0.7.
In the case of `CO[C@H]1C[C@H](O[C@H]2[C@H](C)[C@@H](O[C@@H]3O[C@H](C)C[C@H](N(C)C)[C@H]3OC(C)=O)[C@@H](C)C[C@@]3(CO3)C(=O)[C@H](C)[C@@H](OC(C)=O)[C@@H](C)[C@@H](C)OC(=O)[C@@H]2C)O[C@@H](C)[C@@H]1OC(C)=O` [Troleandomycin], the fold induction at 50 µM was 0.9 in test [1] (setting [22]); 1.1 in test [2] (setting [23]); 0.8 in test [3] (setting [24]); 6.5 in test [4] (setting [25]); 1 in test [5] (setting [26]); 0.7 in test [6] (setting [27]). The fold induction at 50 µM in test [7] (setting [28]) stood at 0.6.
In the case of `Cc1c(C)c2c(c(C)c1O)CCC(C)(C(=O)O)O2` (stereo not drawn) [Trolox], the fold induction at 50 µM was found to be 1.1 in test [1] (setting [8]); 1.6 in test [2] (setting [9]); 1.1 in test [3] (setting [10]); 1.6 in test [4] (setting [11]); 1.1 in test [5] (setting [12]); 1.1 in test [6] (setting [13]). Also, the fold induction at 50 µM in test [7] (setting [14]) came out at 1.1.
